By IC50 is commonly meant the concentration that inhibits the measured activity by half.

The values that follow come from US20220227729A1, “IDENTIFICATION AND USE OF KRAS INHIBITORS” (Bayer Aktiengesellschaft, priority 2019, published 2022).

The target in one assay is KRAS^G12C (Homo sapiens, UniProt P01116, G12C). The experiment in a line: KRAS G12C activation by SOS1cat assay (On-assay), HTRF. Conditions: SOS1cat mediated loading of GST-KRAS G12C-GDP with fluorescent GTP analogue; 180 min preincubation; 20° C.; read-out: IC50 value biochemical KRAS^G12C activation assay. The protocol:
(§1) Preparation of test compound dilutions. A 100-fold concentrated solution of the test compound (50 nL) in DMSO was transferred to microtiter test plates (384 or 1,536 wells, Greiner Bio-One, Germany) using either a Hummingbird liquid handler (Digilab, MA, USA) or an Echo acoustic system (Labcyte, CA, USA). Plates were sealed with adhesive foil or heat-sealed and stored at −20° C. until use. Serial dilutions of test compounds were prepared in 100% DMSO using a Precision Pipetting System (BioTek, USA).
(§2) Measurement and evaluation of inhibition data, calculation of IC50 values. Homogeneous time-resolved fluorescence (HTRF) was measured with a PHERAstar reader (BMG, Germany) using the HTRF module (excitation: 337 nm; emission 1: 620 nm, emission 2: 665 nm). The ratio of the emissions at 665 and 620 nm was used as the specific signal for further evaluation. The data were normalized using the controls: DMSO=0% inhibition, inhibition control wells with inhibitor control solution=100% inhibition. Compounds were tested in duplicates at up to 11 concentrations (e.g. 20 μM, 5.7 μM, 1.6 μM, 0.47 μM, 0.13 μM, 38 nM, 11 nM, 3.1 nM, 0.89 nM, 0.25 nM and 0.073 nM). IC50 values were calculated using a four-parameter fit, with a commercial software package (Genedata Screener, Switzerland).
(§3) KRAS^G12C activation by SOS1^cat assay (“On-assay”). This assay quantifies SOS1^cat mediated loading of KRAS^G12C-GDP with a fluorescent GTP analogue. Detection of successful loading was achieved by measuring resonance energy transfer from anti-GST-terbium (FRET donor) bound to GST-KRAS^G12c to the loaded fluorescent GTP analogue (FRET acceptor). The fluorescent GTP analogue EDA-GTP-DY-647P1 [2′/3′-O-(2-aminoethyl-carbamoyl)guanosine-5′-triphosphate labelled with DY-647P1 (Dyomics GmbH, Germany)] was synthesized by Jena Bioscience (Germany) and supplied as a 1 mM aqueous solution. A KRAS^G12C working solution was prepared in assay buffer [10 mM HEPES pH 7.4 (AppliChem), 150 mM NaCl (Sigma), 5 mM MgCl2 (Sigma), 1 mM DTT (Thermo Fisher), 0.05% BSA Fraction V pH 7.0 (ICN Biomedicals), 0.0025% (v/v) Igepal (Sigma)] containing 100 nM GST-KRAS^G12C and 2 nM anti-GST-terbium (Cisbio, France). A SOS1^cat working solution was prepared in assay buffer containing 20 nM SOS1^cat and 200 nM EDA-GTP-DY-647P1. An inhibitor control solution was prepared in assay buffer containing 200 nM EDA-GTP-DY-647P1 without SOS1^cat. All steps of the assay were performed at 20° C. A volume of 2.5 μL of the KRAS^G12C working solution was added to all wells of the test plate using a Multidrop dispenser (Thermo LabSystems). After 180 min, 2.5 μL of the SOS1^cat working solution was added to all wells, except for the inhibitor control solution wells. After 30 min incubation, HTRF was measured.

The next assay has as its target KRAS^WT (Homo sapiens, UniProt P01116). Put plainly: Wild-type KRAS activation by SOS1cat assay, HTRF. The conditions noted are these: SOS1cat mediated loading of GST-KRAS WT-GDP with fluorescent GTP analogue; 50 nM GST-KRAS WT; read-out: IC50 value biochemical KRAS^wt activation assay. As for the experimental part: as §1, §2, §3
Wild-type KRAS activation by SOS1^cat assay. This assay quantifies human SOS1^cat mediated loading of wild-type GST-KRAS^WT-GDP with a fluorescent GTP analogue. The assay was performed similar to the KRAS^G12C activation by SOS1^cat assay. GST-KRAS^G12C was replaced by GST-KRAS^WT, which was used at 50 nM final concentration.
On the technique in general: Time-resolved FRET reads energy transfer from a long-lived donor to a nearby acceptor.

Assay [1] deals with recombinant kRas mutant (G12C; C51S; C80L; C118S) (Homo sapiens, UniProt P01116, C118S/C51S/C80L/G12C). The experiment in a line: Covalent binding assay, intact mass LC-MS. The conditions noted are these: 25 μM protein, 25 μM compound, room temperature, 2 h. The protocol:
The percentage of covalent adduct formation at KRas G12C was determined by intact mass determination. To this end 25 μM recombinant kRas mutant (G12C; C51S; C80L; C118S) (storage buffer: 50 mM Tris, pH=8; 50 mM NaCl) were incubated with 25 μM of compound (1% v/v final DMSO concentration) at room temperature for 2 h. For LC-MS analysis the reaction was acidified by adding 4 μL of 4% v/v TFA to 20 μL reaction volume.
Liquid chromatography-mass spectrometry (LC-MS) analysis was performed using a Waters SYNAPT G2-S quadrupole time-of-flight mass spectrometer connected to a Waters nanoAcquity UPLC system. Samples were loaded on a 2.1×5 mm mass prep C4 guard column (Waters) and desalted with a short gradient (3 min.) of increasing concentrations of acetonitrile at a flow rate of 100 μL/min. Spectra were analyzed by using MassLynx v4.1 software and deconvoluted with the MaxEnt1 algorithm.
Percent conversion was determined by the ratio of signal intensities of apo-kRas and kRas+inhibitor.

In the case of `C=CC(=O)N1CCC(c2nc3cc(Cl)c(-c4c(C)ccc5[nH]ncc45)cc3c(=O)[nH]2)C1` (stereo not shown) [Example 25, 7-Chloro-6-(5-methyl-1H-indazol-4-yl)-2-[1-(prop-2-enoyl)pyrrolidin-3-yl]quinazolin-4(3H)-one], the IC50 is 5 µM on KRAS^G12C and over 20 µM on KRAS^WT. Moreover, the “Covalent Binding Assay (% binding)” value in assay [1] was found to be 81%.
Take `C=CC(=O)N1CCC(c2cc3ncc(-c4cc(O)ccc4F)cc3c(=O)[nH]2)C1` (stereo not shown) [Example 36, 3-(2-Fluoro-5-hydroxyphenyl)-7-[1-(prop-2-enoyl)pyrrolidin-3-yl]-1,6-naphthyridin-5(6H)-one]: the 50% inhibitory concentration (IC50) at KRAS^G12C is 2.7 µM; at KRAS^WT, over 20 µM. In addition, in assay [1], the “Covalent Binding Assay (% binding)” value stood at 85%.
With `C=CC(=O)N1CCC(c2cc3ccc(-c4cc(F)cc(F)c4)cc3c(=O)[nH]2)C1` (stereo not shown) [Example 8, 7-(3,5-Difluorophenyl)-3-[1-(prop-2-enoyl)pyrrolidin-3-yl]isoquinolin-1(2H)-one], in assay [1], the “Covalent Binding Assay (% binding)” value is reported as 0%.
On to `C=CC(=O)N1CCC(c2cc3ncc(-c4ccc(F)c(O)c4)cc3c(=O)[nH]2)C1` (stereo not shown) [Example 37, 3-(4-Fluoro-3-hydroxyphenyl)-7-[1-(prop-2-enoyl)pyrrolidin-3-yl]-1,6-naphthyridin-5(6H)-one], for which the IC50 at KRAS^G12C and at KRAS^WT was over 20 µM throughout. Moreover, the “Covalent Binding Assay (% binding)” value in assay [1] came out at 21%.
In the case of `C=CC(=O)N1CCC(c2nc3cc(Cl)c(-c4ccc(F)cc4F)cc3c(=O)[nH]2)C1` (stereo not shown) [Example 23, 7-Chloro-6-(2,4-difluorophenyl)-2-[1-(prop-2-enoyl)pyrrolidin-3-yl]quinazolin-4(3H)-one], the half-inhibitory concentration (IC50) at KRAS^G12C and on KRAS^WT was over 20 µM in each case. In addition, the “Covalent Binding Assay (% binding)” value in assay [1] is reported as 34%.
As for `C=CC(=O)N1CCC(c2cc3cc(Cl)c(-c4c(O)cccc4F)cc3c(=O)[nH]2)C1` (stereo not shown) [Example 27, 6-Chloro-7-(2-fluoro-6-hydroxyphenyl)-3-[1-(prop-2-enoyl)pyrrolidin-3-yl]isoquinolin-1(2H)-one], the 50% inhibitory concentration (IC50) on KRAS^G12C was determined as 16 µM.
Take `C=CC(=O)N1CCC(c2nc3ccc(-c4cncc5ccccc45)cc3c(=O)[nH]2)C1` (stereo not shown) [Example 18, 6-(Isoquinolin-4-yl)-2-[1-(prop-2-enoyl)pyrrolidin-3-yl]quinazolin-4(3H)-one]: the IC50 at KRAS^G12C and on KRAS^WT was over 20 µM each time. Further, the “Covalent Binding Assay (% binding)” value in assay [1] was 4%.
Take `C=CC(=O)N1CCC(c2cc3ncc(-c4ccccc4F)cc3c(=O)[nH]2)C1` (stereo not shown) [Example 30, 3-(2-Fluorophenyl)-7-[1-(prop-2-enoyl)pyrrolidin-3-yl]-1,6-naphthyridin-5(6H)-one]: the IC50 is 5.3 µM on KRAS^G12C and over 20 µM on KRAS^WT. The “Covalent Binding Assay (% binding)” value in assay [1] was 69%.
`C=CC(=O)N1CCC(c2cc3ccc(-c4ccc(F)c(OCC)c4F)cc3c(=O)[nH]2)C1` (stereo not shown) [Example 6, 7-(3-Ethoxy-2,4-difluorophenyl)-3-[1-(prop-2-enoyl)pyrrolidin-3-yl]isoquinolin-1(2H)-one]: the IC50 on KRAS^G12C and at KRAS^WT was over 20 µM throughout. The “Covalent Binding Assay (% binding)” value in assay [1] is reported as 3%.
With `C=CC(=O)N1CCC(c2cc3ccc(-c4c(O)cccc4F)cc3c(=O)[nH]2)C1` (stereo not shown) [Example 1, 7-(2-Fluoro-6-hydroxyphenyl)-3-[1-(prop-2-enoyl)pyrrolidin-3-yl]isoquinolin-1(2H)-one], the IC50 at KRAS^G12C was 4.7 µM.
`C=CC(=O)N1CCC(c2cc3ncc(-c4c(O)cccc4F)cc3c(=O)[nH]2)C1` (stereo not shown) [Example 29, 3-(2-Fluoro-6-hydroxyphenyl)-7-[1-(prop-2-enoyl)pyrrolidin-3-yl]-1,6-naphthyridin-5(6H)-one]: the IC50 on KRAS^G12C was found to be 2.8 µM. Further, the “Covalent Binding Assay (% binding)” value in assay [1] worked out at 80%.
`C=CC(=O)N1CCC(c2nc3cc(Cl)c(-c4c(O)cccc4F)cc3c(=O)[nH]2)C1` (stereo not shown) [Example 24, 7-Chloro-6-(2-fluoro-6-hydroxyphenyl)-2-[1-(prop-2-enoyl)pyrrolidin-3-yl]quinazolin-4(3H)-one]: the concentration for half-maximal inhibition (IC50) on KRAS^G12C is 9.1 µM; at KRAS^WT, over 20 µM. Moreover, the “Covalent Binding Assay (% binding)” value in assay [1] is given as 53%.
For `C=CC(=O)N1CCC(c2cc3ccc(-c4cccc5ncccc45)cc3c(=O)[nH]2)C1` (stereo not shown) [Example 2, 3-[1-(Prop-2-enoyl)pyrrolidin-3-yl]-7-(quinolin-5-yl)isoquinolin-1(2H)-one], the IC50 on KRAS^G12C was over 9 µM. Moreover, in assay [1], the “Covalent Binding Assay (% binding)” value is given as 20%.
Consider `C=CC(=O)N1CCC(c2nc3cc(Cl)c(-c4ccccc4F)cc3c(=O)[nH]2)C1` (stereo not shown) [Example 22, 7-Chloro-6-(2-fluorophenyl)-2-[1-(prop-2-enoyl)pyrrolidin-3-yl]quinazolin-4(3H)-one], for which the IC50 on KRAS^G12C was 18 µM; on KRAS^WT, over 20 µM. The “Covalent Binding Assay (% binding)” value in assay [1] was 31%.
The corresponding values for `C=CC(=O)N1CCC(c2cc3ncc(-c4ccccc4CC)cc3c(=O)[nH]2)C1` (stereo not shown) [Example 33, 3-(2-Ethylphenyl)-7-[1-(prop-2-enoyl)pyrrolidin-3-yl]-1,6-naphthyridin-5(6H)-one] are 6.8 µM, over 20 µM and 60%.
On to `C=CC(=O)N1CCC(c2cc3ccc(-c4ccc(F)cc4F)cc3c(=O)[nH]2)C1` (stereo not shown) [Example 4, 7-(2,4-Difluorophenyl)-3-[1-(prop-2-enoyl)pyrrolidin-3-yl]isoquinolin-1(2H)-one], for which the concentration for half-maximal inhibition (IC50) on KRAS^G12C worked out at 5 µM.
For the molecule `C=CC(=O)N1CCC(c2nc3ccc(-c4ccccc4F)cc3c(=O)[nH]2)C1` (stereo not shown) [Example 12, 6-(2-Fluorophenyl)-2-[1-(prop-2-enoyl)pyrrolidin-3-yl]quinazolin-4(3H)-one], the IC50 at KRAS^G12C was 6.2 µM; at KRAS^WT, over 20 µM. Further, in assay [1], the “Covalent Binding Assay (% binding)” value is 70%.
On to `C=CC(=O)N1CCC(c2cc3cnc(-c4c(O)cccc4F)cc3c(=O)[nH]2)C1` (stereo not shown) [Example 42, 7-(2-Fluoro-6-hydroxyphenyl)-3-[1-(prop-2-enoyl)pyrrolidin-3-yl]-2,6-naphthyridin-1(2H)-one], for which the IC50 on KRAS^G12C came to 1.3 µM. For the same molecule, the “Covalent Binding Assay (% binding)” value in assay [1] came out at 61%.
For the molecule `C=CC(=O)N1CCC(c2cc3ccc(-c4ccccc4CC)cc3c(=O)[nH]2)C1` (stereo not shown) [Example 5, 7-(2-Ethylphenyl)-3-[1-(prop-2-enoyl)pyrrolidin-3-yl]isoquinolin-1(2H)-one], the IC50 at KRAS^G12C came to 8 µM. Also, in assay [1], the “Covalent Binding Assay (% binding)” value turned out to be 60%.
As for `C=CC(=O)N1CCC(c2nc3ccc(-c4c(O)cccc4F)cc3c(=O)[nH]2)C1` (stereo not shown) [Example 17, 6-(2-Fluoro-6-hydroxyphenyl)-2-[1-(prop-2-enoyl)pyrrolidin-3-yl]quinazolin-4(3H)-one], the 50% inhibitory concentration (IC50) on KRAS^G12C came out at 4.9 µM.
